{
  "source": "ChEMBL document CHEMBL3797102",
  "about": "“Drug trapping in hERG K+ channels: (not) a matter of drug size?” (Medchemcomm, 2016)",
  "format_in_all_cases": "cell-based",
  "key": {"[1]": {"biological_target": "hERG (KCNH2) Y652A mutant (Homo sapiens, UniProt Q12809, Y652A)", "sequence (Q12809 whole entry Y652A)": "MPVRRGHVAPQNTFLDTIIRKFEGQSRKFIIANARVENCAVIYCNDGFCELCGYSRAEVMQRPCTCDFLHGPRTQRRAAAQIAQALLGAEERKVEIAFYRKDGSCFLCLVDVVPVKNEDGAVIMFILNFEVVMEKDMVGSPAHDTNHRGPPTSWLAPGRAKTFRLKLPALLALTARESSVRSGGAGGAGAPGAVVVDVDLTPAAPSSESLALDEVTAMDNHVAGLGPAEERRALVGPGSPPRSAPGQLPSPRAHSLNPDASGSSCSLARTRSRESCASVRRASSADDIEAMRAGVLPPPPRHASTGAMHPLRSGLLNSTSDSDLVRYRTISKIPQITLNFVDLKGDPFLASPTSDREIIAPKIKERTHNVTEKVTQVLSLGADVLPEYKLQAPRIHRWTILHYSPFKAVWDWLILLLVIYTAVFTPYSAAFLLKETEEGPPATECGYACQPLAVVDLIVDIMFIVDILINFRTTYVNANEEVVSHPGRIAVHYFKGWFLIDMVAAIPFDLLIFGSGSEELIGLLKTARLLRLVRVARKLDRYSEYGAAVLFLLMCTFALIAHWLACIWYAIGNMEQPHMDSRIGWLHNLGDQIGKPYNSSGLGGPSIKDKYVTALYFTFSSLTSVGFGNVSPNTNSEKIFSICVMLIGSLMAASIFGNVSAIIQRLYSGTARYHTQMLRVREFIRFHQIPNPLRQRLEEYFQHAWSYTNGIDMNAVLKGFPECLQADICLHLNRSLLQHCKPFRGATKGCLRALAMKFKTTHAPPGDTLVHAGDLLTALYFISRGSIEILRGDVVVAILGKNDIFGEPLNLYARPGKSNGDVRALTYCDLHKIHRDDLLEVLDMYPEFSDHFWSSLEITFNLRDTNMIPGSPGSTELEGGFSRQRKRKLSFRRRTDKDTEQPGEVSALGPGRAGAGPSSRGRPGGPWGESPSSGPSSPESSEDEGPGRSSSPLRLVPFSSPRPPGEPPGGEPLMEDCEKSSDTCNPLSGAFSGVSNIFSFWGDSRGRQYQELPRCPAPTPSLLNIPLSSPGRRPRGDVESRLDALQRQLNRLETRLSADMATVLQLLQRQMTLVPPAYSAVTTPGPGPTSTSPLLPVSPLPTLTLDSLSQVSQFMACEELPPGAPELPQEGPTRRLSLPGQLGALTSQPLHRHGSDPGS", "assay": "Inhibition of human ERG channel Y652A mutant expressed in Xenopus laevis oocytes assessed as use dependent suppression of K+ current at 150 uM at 1 Hz equilibrated for 5 mins by two-electrode voltage clamp method"}, "[2]": {"biological_target": "T1, Voltage-gated inwardly rectifying potassium channel KCNH2 (Homo sapiens, UniProt Q12809)", "T1 sequence (Q12809 whole entry)": "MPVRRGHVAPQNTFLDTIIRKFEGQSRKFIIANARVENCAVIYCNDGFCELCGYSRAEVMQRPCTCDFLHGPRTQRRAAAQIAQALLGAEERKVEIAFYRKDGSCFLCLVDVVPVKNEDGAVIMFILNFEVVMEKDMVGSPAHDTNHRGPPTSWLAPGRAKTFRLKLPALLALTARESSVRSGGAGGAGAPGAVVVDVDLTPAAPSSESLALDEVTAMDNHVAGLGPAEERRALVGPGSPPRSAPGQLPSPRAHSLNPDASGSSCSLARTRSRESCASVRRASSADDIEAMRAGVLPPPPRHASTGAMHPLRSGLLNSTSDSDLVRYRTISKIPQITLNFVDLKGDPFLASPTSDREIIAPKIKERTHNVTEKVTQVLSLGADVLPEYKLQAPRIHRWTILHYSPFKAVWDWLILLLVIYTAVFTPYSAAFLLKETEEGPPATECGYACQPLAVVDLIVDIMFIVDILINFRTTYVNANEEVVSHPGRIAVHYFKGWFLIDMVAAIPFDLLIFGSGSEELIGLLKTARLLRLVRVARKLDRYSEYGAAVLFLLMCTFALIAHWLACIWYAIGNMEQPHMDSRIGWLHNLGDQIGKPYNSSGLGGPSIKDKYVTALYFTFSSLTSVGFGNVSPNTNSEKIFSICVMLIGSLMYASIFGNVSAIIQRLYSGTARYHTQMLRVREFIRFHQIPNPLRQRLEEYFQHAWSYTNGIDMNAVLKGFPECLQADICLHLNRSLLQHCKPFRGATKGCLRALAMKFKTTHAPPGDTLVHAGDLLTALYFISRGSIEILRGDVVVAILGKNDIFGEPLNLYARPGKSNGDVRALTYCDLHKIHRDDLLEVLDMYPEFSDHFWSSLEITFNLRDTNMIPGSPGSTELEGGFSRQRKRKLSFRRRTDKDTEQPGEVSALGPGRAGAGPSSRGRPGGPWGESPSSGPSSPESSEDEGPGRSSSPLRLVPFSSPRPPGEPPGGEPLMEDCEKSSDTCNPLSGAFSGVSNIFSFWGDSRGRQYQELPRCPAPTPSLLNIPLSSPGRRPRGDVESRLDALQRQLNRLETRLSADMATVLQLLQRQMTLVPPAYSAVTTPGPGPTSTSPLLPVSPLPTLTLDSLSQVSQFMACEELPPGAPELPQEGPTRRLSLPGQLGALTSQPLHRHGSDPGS", "assay": "Inhibition of wild type human ERG channel expressed in Xenopus laevis oocytes assessed as recovery from channel block after resting period of 300 secs followed by single test pulse at -100 mV holding potential subsequently washed out at 0.3 Hz by two-electrode voltage clamp method", "parameters": "scale not given: the % may be the effect or the level left", "details": "5 min; call rule not given here"}, "[3]": {"biological_target": "T1, Voltage-gated inwardly rectifying potassium channel KCNH2", "assay": "Inhibition of wild type human ERG channel expressed in Xenopus laevis oocytes assessed as time taken for use dependent steady state block of K+ current at 150 uM preincubated for 330 secs followed by pulse train at 1 Hz at holding potential -100 mV by two-electrode voltage clamp method"}, "[4]": {"biological_target": "T1, Voltage-gated inwardly rectifying potassium channel KCNH2", "assay": "Inhibition of wild type human ERG channel expressed in Xenopus laevis oocytes assessed as use dependent steady state block of induced K+ current at 150 uM preincubated for 330 secs followed by pulse train at 1 Hz at holding potential -100 mV by two-electrode voltage clamp method"}, "[5]": {"biological_target": "T2, hERG (KCNH2), wild type (Homo sapiens, UniProt Q12809)", "T2 sequence (Q12809 whole entry)": "as above", "assay": "Inhibition of wild type human ERG channel expressed in Xenopus laevis oocytes assessed as first current amplitude after resting period of 300 secs followed by single test pulse at -100 mV holding potential by two-electrode voltage clamp method", "parameters": "scale not given: the % may be the effect or the level left", "details": "read-out: Activity"}, "[6]": {"biological_target": "T2, hERG (KCNH2), wild type", "assay": "Inhibition of wild type human ERG channel expressed in Xenopus laevis oocytes assessed as use dependent steady state block of +20 mV-induced K+ current at 150 uM preincubated for 330 secs followed by pulse train at 1 Hz by two-electrode voltage clamp method"}, "[7]": {"biological_target": "hERG (KCNH2) F656A mutant (Homo sapiens, UniProt Q12809, F656A)", "sequence (Q12809 whole entry F656A)": "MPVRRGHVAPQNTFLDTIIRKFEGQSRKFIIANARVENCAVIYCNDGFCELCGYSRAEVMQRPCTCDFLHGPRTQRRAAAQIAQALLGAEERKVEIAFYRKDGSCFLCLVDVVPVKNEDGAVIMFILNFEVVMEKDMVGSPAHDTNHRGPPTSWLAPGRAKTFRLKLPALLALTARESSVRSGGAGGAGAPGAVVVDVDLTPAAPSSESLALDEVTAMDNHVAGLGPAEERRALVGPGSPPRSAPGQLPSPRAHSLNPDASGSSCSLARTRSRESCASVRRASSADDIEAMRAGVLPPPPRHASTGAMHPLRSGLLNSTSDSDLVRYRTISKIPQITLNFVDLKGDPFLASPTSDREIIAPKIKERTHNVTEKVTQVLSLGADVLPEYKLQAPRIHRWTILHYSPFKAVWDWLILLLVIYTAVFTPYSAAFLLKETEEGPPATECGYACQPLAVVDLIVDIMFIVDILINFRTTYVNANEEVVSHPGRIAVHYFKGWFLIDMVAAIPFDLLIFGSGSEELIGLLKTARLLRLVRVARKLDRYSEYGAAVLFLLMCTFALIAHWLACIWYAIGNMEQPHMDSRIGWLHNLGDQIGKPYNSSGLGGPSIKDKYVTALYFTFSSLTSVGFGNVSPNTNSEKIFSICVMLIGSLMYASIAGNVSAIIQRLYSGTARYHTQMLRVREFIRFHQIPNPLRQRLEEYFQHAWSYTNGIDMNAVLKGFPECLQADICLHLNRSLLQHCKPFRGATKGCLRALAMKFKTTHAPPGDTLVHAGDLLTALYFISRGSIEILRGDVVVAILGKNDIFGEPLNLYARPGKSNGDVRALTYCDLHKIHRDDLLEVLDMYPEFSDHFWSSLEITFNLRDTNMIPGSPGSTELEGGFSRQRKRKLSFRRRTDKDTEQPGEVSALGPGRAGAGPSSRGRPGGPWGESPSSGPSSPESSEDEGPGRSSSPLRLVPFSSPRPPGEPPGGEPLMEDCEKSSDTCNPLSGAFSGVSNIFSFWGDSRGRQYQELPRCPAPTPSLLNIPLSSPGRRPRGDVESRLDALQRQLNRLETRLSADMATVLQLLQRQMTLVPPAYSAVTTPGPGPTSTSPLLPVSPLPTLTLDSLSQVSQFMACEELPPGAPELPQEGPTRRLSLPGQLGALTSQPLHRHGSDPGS", "assay": "Inhibition of human ERG channel F656A mutant expressed in Xenopus laevis oocytes assessed as use dependent suppression of tail current at 150 uM at -140 mV by two-electrode voltage clamp method"}},
  "data": [
    {"smiles": "O=C(CCc1ccccc1)c1ccccc1OCC(O)CN1CCN(C(c2ccccc2)(c2ccccc2)c2ccccc2)CC1", "note": "(configuration not stated)", "values": [
      {"measurement": "inhibition at 5 min, 150 µM", "setting": "[1]", "value": 13.2, "unit": "%"},
      {"measurement": "Activity", "setting": "[2]", "value": 47.5, "unit": "%"},
      {"measurement": "Time", "setting": "[3]", "value": 15, "unit": "s"},
      {"measurement": "inhibition (INH)", "setting": "[4]", "value": "Active"},
      {"measurement": "activity at 5 min", "setting": "[5]", "value": "< 1", "unit": "%"},
      {"measurement": "inhibition at 330 s, 150 µM", "setting": "[6]", "value": 69, "unit": "%"},
      {"measurement": "inhibition at 150 µM", "setting": "[7]", "value": 18.3, "unit": "%"}
    ]}
  ]
}
